In US20230391756A1, “NEW COMPOUND” (JANSSEN PHARMACEUTICA NV, priority 2020, published 2023):

Legend:
[1] = test system: NLRP3 inflammasome pathway (IL-1β); assay: PBMC assay: IL-1β release after LPS stimulation; format: cell-based; settings: human PBMCs, 100 ng/ml LPS for 6 hrs, MSD
Description: The activity of a compound according to the present invention can be assessed by in vitro methods.
(§1) Peripheral venous blood was collected from healthy individuals and human peripheral blood mononuclear cells (PBMCs) were isolated from blood by Ficoll-Histopaque (Sigma-Aldrich, A0561) density gradient centrifugation. After isolation, PBMCs were stored in liquid nitrogen for later use. Upon thawing, PBMC cell viability was determined in growth medium (RPMI media supplemented with 10% fetal bovine serum, 1% Pen-Strep and 1% L-glutamine). […] PBMCs were added at a density of 7.5×10^4 cells per well and incubated for 30 min in a 5% CO2 incubator at 37° C. LPS stimulation was performed by addition of 100 ng/ml LPS (final concentration, Invivogen, tlrl-smlps) for 6 hrs followed by collection of cellular supernatant and the analysis of IL-1β (μM) and TNF cytokines levels (μM) via MSD technology according to manufacturers' guidelines (MSD, K151A0H).

TNF = assay: PBMC assay: TNF cytokine level after LPS stimulation; format: cell-based; settings: human PBMCs, 100 ng/ml LPS for 6 hrs, MSD, read-out: TNFα EC50
Description: as §1

Row | IC50 [1] [nM] | EC50 (TNF) [µM] | melting point [°C] | Structure (SMILES)
1 | 400 | 12.5 | 238.2 | CCn1nc(CC(=O)Nc2ccc3nncn3c2)c(=O)c2ccc(C(C)(C)F)cc21 [F-74]
2 | 12900 | > 20 | 185.8 | CC(C)n1nc(CC(=O)Nc2ccc(C3CC3)nn2)c(=O)c2ccc(C(F)(F)F)cc21 [F-86]
3 | > 20000 | > 20 | 219.5 | CC(C)n1nc(CC(=O)Nc2nc3ccc(Br)cc3n2C)c(=O)c2ccc(C(F)(F)F)cc21 [F-93]
4 | > 20000 | > 20 | 217.3 | Cc1ccc2c(c1)nc(NC(=O)Cc1nn(C(C)C)c3cc(C(F)(F)F)ccc3c1=O)n2C [F-94]
5 | > 20000 | > 20 | 217.4 | Cc1ccc2nc(NC(=O)Cc3nn(C(C)C)c4cc(C(F)(F)F)ccc4c3=O)n(C)c2c1 [F-95]
6 | > 20000 | > 20 | 245.3 | CC(C)n1nc(CC(=O)Nc2nc3cc(F)ccc3n2C)c(=O)c2ccc(Br)cc21 [F-97]
7 | 18200 | > 20 | 205.6 | CC(C)n1nc(CC(=O)Nc2nc3ccccc3n2C)c(=O)c2ccc(Br)cc21 [F-100]
8 | 1140 | > 20 | 270.9 | O=C(Cc1nn(C2CC2)c2cc(C(F)(F)F)ccc2c1=O)Nc1cn2cnnc2cn1 [F-107]
9 | 513 | > 20 | 277.2 | O=C(Cc1nn(C2CC2)c2cc(Br)ccc2c1=O)Nc1cn2cnnc2cn1 [F-113]
10 | 1030 | 14.1 | 136.4 | CCn1nc(CC(=O)Nc2ccc3nncn3n2)c(=O)c2ccc(C3CCC3)cc21 [F-136]
11 | 51 | 2.34 | 188.2 | CC(C)n1nc(CC(=O)Nc2ccc3nncn3n2)c(=O)c2ccc(C(C)(C)F)cc21 [F-147]
12 | 513 | 4.58 | 168.8 | CC(C)n1nc(CC(=O)Nc2ccc3nncn3n2)c(=O)c2ccc(C3CCC3)cc21 [F-148]

The next lines start with the molecule.

Row | Structure (SMILES) | IC50 [1] [nM] | EC50 (TNF) [µM] | melting point [°C]
13 | CC(C)n1nc(CC(=O)Nc2ccc3nncn3c2)c(=O)c2ccc(C(C)(C)F)cc21 [F-75] | 520 | 14.6 | 256.8
14 | CC(C)n1nc(CC(=O)Nc2ccc(I)nn2)c(=O)c2ccc(C(F)(F)F)cc21 [F-85] | 15300 | > 20 | 177.9
15 | CC(C)n1nc(CC(=O)Nc2nc3ccccc3n2C)c(=O)c2ccc(C(F)(F)F)cc21 [F-91] | > 20000 | > 20 | 214.7
16 | CC(C)n1nc(CC(=O)Nc2nc3ccc(C#N)cc3n2C)c(=O)c2ccc(C(F)(F)F)cc21 [F-92] | > 20000 | > 20 | 242.9
17 | CC(C)n1nc(CC(=O)Nc2nc3ccc(F)cc3n2C)c(=O)c2ccc(Br)cc21 [F-96] | > 20000 | > 20 | 229.8
18 | CC(C)n1nc(CC(=O)Nc2nc3cc(F)ccc3n2C)c(=O)c2ccc(C(F)(F)F)cc21 [F-98] | > 20000 | > 20 | 222.5
19 | CC(C)n1nc(CC(=O)Nc2nc3ccc(F)cc3n2C)c(=O)c2ccc(C(F)(F)F)cc21 [F-99] | > 20000 | > 20 | 221.8
20 | CC(C)n1nc(CC(=O)Nc2nc3cc(C#N)ccc3n2C)c(=O)c2ccc(C(F)(F)F)cc21 [F-101] | 15000 | ~16.5 | 243.8
21 | CC(C)n1nc(CC(=O)Nc2nc3cc(Cl)ccc3o2)c(=O)c2ccc(Br)cc21 [F-104] | 2480 | > 20 | 199
22 | CCn1nc(CC(=O)Nc2cn3cnnc3cn2)c(=O)c2ccc(C(F)(F)F)cc21 [F-106] | 1450 | > 20 | 280.2
23 | CC(F)(F)c1ccc2c(=O)c(CC(=O)Nc3cn4cnnc4cn3)nn(C3CC3)c2c1 [F-108] | 985 | > 20 | 257.9
24 | CC(C)n1nc(CC(=O)Nc2nc3ccccc3o2)c(=O)c2ccc(C(F)(F)F)cc21 [F-110] | 900 | > 20 | 187.4
25 | CC(C)n1nc(CC(=O)Nc2nc3ccccc3o2)c(=O)c2ccc(Br)cc21 [F-111] | 620 | > 20 | 203.3
26 | CC(C)n1nc(CC(=O)Nc2nc3ncccn3n2)c(=O)c2ccc(C(F)(F)F)cc21 [F-114] | 330 | > 20 | 259.7
27 | CC(C)n1nc(CC(=O)Nc2ccc3nnc(Cl)n3n2)c(=O)c2ccc(C(F)(F)F)cc21 [F-132] | 892 | > 20 | 248.9
28 | O=C(Cc1nn(C2CC2)c2cc(C(F)(F)F)ccc2c1=O)Nc1ccc2nncn2n1 [F-139] | 210 | > 20 | 215.7
29 | CCn1nc(CC(=O)Nc2ccc3nncn3n2)c(=O)c2ccc(C3CC3)cc21 [F-141] | 120 | 9.77 | 223
30 | CC(C)n1nc(CC(=O)Nc2ccc3nncn3n2)c(=O)c2ccc(C(C)(F)F)cc21 [F-145] | 77 | 4.32 | 214.1
31 | CCC(C)n1nc(CC(=O)Nc2ccc3nncn3n2)c(=O)c2ccc(C(F)(F)F)cc21 (stereo not drawn) [F-146] | 142 | 4.67 | 179.8
